Data on 31 compounds can be found in patent US7217730B2, “Method for the use of pyranoindole derivatives to treat infection with Hepatitis C virus” (Wyeth, priority 2002, dated 2007).

The target in assay [1] is BB7 (RNA-dependent RNA polymerase hepatitis C virus protein sequence derived from HCV replicon) (Hepatitis C virus genotype 1b, UniProt Q9WMX2). In words: Hepatitis C polymerase inhibition, BB7 sequence. The assay is classed as biochemical. To be noted: Table 1B.
The target in assay [2] is T1, NS5B from the BK strain (genotype 1b) (Hepatitis C virus genotype 1b, UniProt P26663).
T1 construct: NS5B from the BK strain (genotype 1b) is expressed in E. coli as a protein in which the 21 C-terminal amino acids are replaced; made in house; host or cells: E. coli
T1 sequence (P26663 2420-2989): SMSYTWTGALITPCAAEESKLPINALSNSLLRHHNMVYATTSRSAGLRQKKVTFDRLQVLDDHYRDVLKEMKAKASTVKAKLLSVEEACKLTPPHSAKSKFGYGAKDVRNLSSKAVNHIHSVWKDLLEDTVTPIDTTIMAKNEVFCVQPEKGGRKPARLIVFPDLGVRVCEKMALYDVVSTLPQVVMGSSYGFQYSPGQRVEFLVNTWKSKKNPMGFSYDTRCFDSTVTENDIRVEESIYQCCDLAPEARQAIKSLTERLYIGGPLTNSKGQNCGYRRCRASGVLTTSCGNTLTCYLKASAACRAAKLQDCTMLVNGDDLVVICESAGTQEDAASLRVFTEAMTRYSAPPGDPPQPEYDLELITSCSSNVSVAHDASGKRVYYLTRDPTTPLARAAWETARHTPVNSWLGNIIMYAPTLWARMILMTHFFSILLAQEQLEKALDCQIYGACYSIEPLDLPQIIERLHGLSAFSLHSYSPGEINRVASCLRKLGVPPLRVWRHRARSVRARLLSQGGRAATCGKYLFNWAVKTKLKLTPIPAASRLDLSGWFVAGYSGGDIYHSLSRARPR
In words: Hepatitis C polymerase inhibition, NS5B BK strain, 33P-GTP filter assay. The assay is classed as biochemical. To be noted: Table 1B; NS5B BK strain; read-out: BK IC50. Summed up:
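E. coli-expressed NS5B (BK, genotype 1b) with the 21 C-terminal residues replaced by a linker-His6 tag was preincubated with compound for 15 min at room temperature. It then extended a hairpin-primed heteropolymeric RNA (~3 nM, ~760 nt product) with α-[33P]-GTP for 2 h at 22–25° C. The reaction was stopped with EDTA, and incorporated label was counted on filters.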

In general, IC50 refers to the point on the concentration scale where inhibition reaches its midpoint.

Sequence of BB7 (RNA-dependent RNA polymerase hepatitis C virus protein sequence derived from HCV replicon) (Q9WMX2 2420-3010): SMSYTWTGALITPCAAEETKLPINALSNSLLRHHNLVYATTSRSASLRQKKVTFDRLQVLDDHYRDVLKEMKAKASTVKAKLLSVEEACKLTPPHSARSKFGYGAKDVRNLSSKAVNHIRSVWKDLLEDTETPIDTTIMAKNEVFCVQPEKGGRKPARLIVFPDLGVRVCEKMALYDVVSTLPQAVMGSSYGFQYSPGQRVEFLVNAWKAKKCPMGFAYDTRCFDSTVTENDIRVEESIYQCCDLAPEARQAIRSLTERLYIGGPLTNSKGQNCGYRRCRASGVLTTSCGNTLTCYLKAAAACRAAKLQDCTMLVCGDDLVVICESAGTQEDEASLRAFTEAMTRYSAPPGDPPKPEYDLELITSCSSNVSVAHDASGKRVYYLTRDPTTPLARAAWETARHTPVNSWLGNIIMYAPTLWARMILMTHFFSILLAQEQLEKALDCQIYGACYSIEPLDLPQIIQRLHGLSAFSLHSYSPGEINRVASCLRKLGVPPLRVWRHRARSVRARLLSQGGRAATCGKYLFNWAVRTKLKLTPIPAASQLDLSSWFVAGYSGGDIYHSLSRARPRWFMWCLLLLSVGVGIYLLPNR

Take `CCCC1(CC(=O)O)OCCc2c1[nH]c1c(C)ccc(Cl)c21` (centres unmarked) [Example 260, (5-chloro-8-methyl-1-propyl-1,3,4,9-tetrahydropyrano[3,4-b]indol-1-yl)acetic acid]: the IC50 in assay [1] amounted to 1.2 µM; in assay [2], 400 nM.
Consider `CCCC1(C(=O)O)OCCc2c1[nH]c1c(C)ccc(C(F)(F)F)c21` (centres unmarked) [Example 333, (5-trifluoromethyl-8-methyl-1-propyl-1,3,4,9-tetrahydropyrano[3,4-b]indol-1-yl)carboxylic acid], for which the half-inhibitory concentration (IC50) in assay [1] worked out at 7.6 µM; in assay [2], 1300 nM.
With `COCC1(CC(=O)O)OCCc2c1[nH]c1c(C)ccc(C#N)c21` (centres unmarked) [Example 281, (5-cyano-1-methoxymethyl-8-methyl-1,3,4,9-tetrahydropyrano[3,4-b]indol-1-yl)acetic acid], the figures for the IC50 in assay [1] and in assay [2] were more than 30 µM and more than 30000 nM, respectively.
The like results for `CCCC1(C(=O)O)OCCc2c1[nH]c1c(CC)ccc(C#N)c21` (centres unmarked) [Example 340, (5-cyano-8-ethyl-1-propyl-1,3,4,9-tetrahydropyrano[3,4-b]indol-1-yl)carboxylic acid] were, in that order, more than 28 µM and more than 30000 nM.
With “(5-cyano-7-ethoxy-8-methyl-1-propyl-1,3,4,9-tetrahydro-pyrano[3,4-b]indol-1-yl)-acetic acid [Example 362]”, the IC50 was determined as 0.07 µM in assay [1] and 110 nM in assay [2].
For `CCC1(CC(=O)O)OCCc2c1[nH]c1c(Cl)ccc(Cl)c21` (centres unmarked) [Example 243, (5,8-dichloro-1-ethyl-1,3,4,9-tetrahydropyrano[3,4-b]indol-1-yl)acetic acid], in that order: 10 µM and 6300 nM.
For `CCCC1(C(=O)O)OCCc2c1[nH]c1c(F)ccc(C#N)c21` (centres unmarked) [Example 342, (5-cyano-8-fluoro-1-propyl-1,3,4,9-tetrahydropyrano[3,4-b]indol-1-yl)carboxylic acid], in that order: 10 µM and 1700 nM.
With `CCCC1(CC(=O)O)OCCc2c1[nH]c1c(Cl)ccc(C#N)c21` (centres unmarked) [Example 321, (8-chloro-5-cyano-1-propyl-1,3,4,9-tetrahydropyrano[3,4-b]indol-1-yl)acetic acid], the IC50 in assay [1] was determined as 0.6 µM; in assay [2], 300 nM.
For `CC[C@H](C)C1(CC(=O)O)OCCc2c1[nH]c1c(C)ccc([N+](=O)[O-])c21` (mixture of isomers) [Example 300, (1R*,10S)-[8-methyl-1-(1-methylpropyl)-5-nitro-1,3,4,9-tetrahydropyrano[3,4-b]indol-1-yl]acetic acid], in that order: 0.25 µM and 140 nM.
Regarding `CCSCC1(CC(=O)O)OCCc2c1[nH]c1c(Cl)ccc(Cl)c21` (centres unmarked) [Example 250, (5,8-dichloro-1-ethylthiomethyl-1,3,4,9-tetrahydropyrano[3,4-b]indol-1-yl)acetic acid], the IC50 in assay [1] is 3.9 µM; in assay [2] it was 3700 nM.
The like results for `CC[C@H](C)[C@@]1(CC(=O)O)OCCc2c1[nH]c1c(C)ccc(C#N)c21` (racemic) [Example 289, (1R*,10S*)-[5-cyano-8-methyl-1-(1-methylpropyl)-1,3,4,9-tetrahydropyrano[3,4-b]indol-1-yl]acetic acid] were, in that order, 0.23 µM and 120 nM.
The like results for `Cc1ccc([N+](=O)[O-])c2c3c([nH]c12)C(CC(=O)O)(C1CCC1)OCC3` (centres unmarked) [Example 299, (1-cyclobutyl-8-methyl-5-nitro-1,3,4,9-tetrahydropyrano[3,4-b]indol-1-yl]acetic acid] were, in that order, 0.9 µM and 500 nM.
Regarding `N#Cc1ccc(F)c2[nH]c3c(c12)CCOC3(C(=O)O)C1CCCC1` (centres unmarked) [Example 350, (5-cyano-1-cyclopentyl-8-fluoro-1,3,4,9-tetrahydropyrano[3,4-b]indol-1-yl)carboxylic acid], the IC50 was more than 30 µM in assay [1] and more than 30000 nM in assay [2].
Take `O=C(O)CC1(CC2CC2)OCCc2c1[nH]c1c(Cl)ccc(Cl)c21` (centres unmarked) [Example 257, (5,8-dichloro-1-cyclopropylmethyl-1,3,4,9-tetrahydropyrano[3,4-b]indol-1-yl)acetic acid]: the IC50 in assay [1] was 2.9 µM; in assay [2] it was 1900 nM.
Take `CCCC1(C(=O)O)OCCc2c1[nH]c1c(F)ccc(C(F)(F)F)c21` (centres unmarked) [Example 332, (8-fluoro-5-trifluoromethyl-1-propyl-1,3,4,9-tetrahydropyrano[3,4-b]indol-1-yl)carboxylic acid]: the IC50 amounted to 14 µM in assay [1] and 6400 nM in assay [2].
For `CCCC1(C(=O)O)OCCc2c1[nH]c1ccc(Cl)c(Cl)c21` (centres unmarked) [Example 328, (5,6-dichloro-1-propyl-1,3,4,9-tetrahydropyrano[3,4-b]indol-1-yl)carboxylic acid], in that order: 3.9 µM and 4300 nM.
The like results for `Cc1ccc(C#N)c2c3c([nH]c12)C(CC(=O)O)(C1CCC1)OCC3` (centres unmarked) [Example 284, (5-cyano-1-cyclobutyl-8-methyl-1,3,4,9-tetrahydropyrano[3,4-b]indol-1-yl)acetic acid] were, in that order, 2.3 µM and 1000 nM.
The like results for `N#CCCCC1(CC(=O)O)OCCc2c1[nH]c1c(Cl)ccc(Cl)c21` (centres unmarked) [Example 244, [5,8-dichloro-1-(3-cyanopropyl)-1,3,4,9-tetrahydropyrano[3,4-b]indol-1-yl)acetic acid] were, in that order, 1.8 µM and 300 nM.
`O=C(O)CC1(CC2CCCC2)OCCc2c1[nH]c1c(Cl)ccc(Cl)c21` (centres unmarked) [Example 258, (5,8-dichloro-1-cyclopentylmethyl-1,3,4,9-tetrahydropyrano[3,4-b]indol-1-yl)acetic acid]: the IC50 stood at 14 µM in assay [1] and 9400 nM in assay [2].
As for `CC[C@H](C)[C@@]1(C(=O)O)OCCc2c1[nH]c1c(C)ccc(C#N)c21` (relative stereo) [Example 335, (1R*,10S*)-[5-cyano-8-methyl-(1-methylpropyl)-1,3,4,9-tetrahydropyrano[3,4-b]indol-1-yl]carboxylic acid], the IC50 in assay [1] is more than 30 µM; in assay [2] it was more than 30000 nM.
With `COCCC1(CC(=O)O)OCCc2c1[nH]c1c(Cl)ccc(Cl)c21` (centres unmarked) [Example 247, [5,8-dichloro-1-(2-methoxyethyl)-1,3,4,9-tetrahydropyrano[3,4-b]indol-1-yl]acetic acid], the IC50 in assay [1] was 18 µM; in assay [2], more than 24000 nM.
For `CCCOc1cc(C#N)c2c3c([nH]c2c1C)C(CCC)(CC(=O)O)OCC3` (centres unmarked) [Example 359, (5-cyano-8-methyl-7-propoxy-1-propyl-1,3,4,9-tetrahydro-pyrano[3,4-b]indol-1-yl)-acetic acid], in that order: 0.07 µM and 70 nM.
For `CC[C@H](C)[C@@]1(CC(=O)O)OCCc2c1[nH]c1c(Cl)ccc(C#N)c21` [Example 325, (1R,10S)-[8-Chloro-5-cyano-1-(1-methylpropyl)-1,3,4,9-tetrahydropyrano[3,4-b]indol-1yl]acetic acid], in that order: 0.19 µM and 80 nM.
For `O=C(O)CC1(CCC(F)(F)F)OCCc2c1[nH]c1c(Cl)ccc(C(F)(F)F)c21` (centres unmarked) [Example 263, [8-chloro-5-trifluoromethyl-1-(3,3,3-trifluoropropyl)-1,3,4,9-tetrahydropyrano[3,4-b]indol-1-yl]acetic acid], in that order: 3.2 µM and 1300 nM.
With `CCOCC1(CC(=O)O)OCCc2c1[nH]c1c(Cl)ccc(C(F)(F)F)c21` (centres unmarked) [Example 266, (8-chloro-1-ethoxymethyl-5-trifluoromethyl-1,3,4,9-tetrahydropyrano[3,4-b]indol-1-yl)acetic acid], the IC50 in assay [1] amounted to 17 µM; in assay [2], 14000 nM.
The like results for `CC[C@H](C)[C@@]1(CC(=O)O)OCCc2c1[nH]c1c(C)cc(F)c(C#N)c21` [Example 319, (1R,10S)-[5-cyano-6-fluoro-8-methyl-1-(1-methylpropyl)-1,3,4,9-tetrahydropyrano[3,4-b]indol-1-yl]acetic acid] were, in that order, 0.08 µM and 60 nM.
The like results for `CC[C@H](C)[C@]1(CC(=O)O)OCCc2c1[nH]c1c(C)ccc(C#N)c21` [Example 293, (1S,10S)-[5-cyano-8-methyl-1-(1-methylpropyl)-1,3,4,9-tetrahydropyrano[3,4-b]indol-1-yl]acetic acid] were, in that order, more than 30 µM and more than 30000 nM.
For `CCC(C)C1(CC(=O)O)OCCc2c1[nH]c1c(F)ccc(C#N)c21` (racemic) [Example 314, (1R*,10S)-[5-cyano-8-fluoro-1-(1-methylpropyl)-1,3,4,9-tetrahydropyrano[3,4-b]indol-1-yl]acetic acid], in that order: 3.1 µM and 1400 nM.
Take `CCCC1(C(=O)O)OCCc2c1[nH]c1c(C)cc(F)c(C#N)c21` (centres unmarked) [Example 339, (5-cyano-6-fluoro-8-methyl-1-propyl-1,3,4,9-tetrahydropyrano[3,4-b]indol-1-yl)carboxylic acid]: the IC50 was found to be 2.8 µM in assay [1] and 490 nM in assay [2].
Turning to `CC[C@H](C)C1(CC(=O)O)OCCc2c1[nH]c1c(C)cc(F)c(C#N)c21` (mixture of isomers) [Example 318, (1R*,10S)-[5-cyano-6-fluoro-8-methyl-1-(1-methylpropyl)-1,3,4,9-tetrahydropyrano[3,4-b]indol-1-yl]acetic acid], the IC50 in assay [1] was 0.25 µM; in assay [2], 140 nM.
For `CSCC1(CC(=O)O)OCCc2c1[nH]c1c(Cl)ccc(Cl)c21` (centres unmarked) [Example 249, (5,8-dichloro-1-methylthiomethyl-1,3,4,9-tetrahydropyrano[3,4-b]indol-1-yl)acetic acid], in that order: 12 µM and 7000 nM.
